Source: patent US9145374B2, “Shikimate pathway inhibitors and the use thereof” (National Tsing Hua University, priority 2013, dated 2015)
In brackets after ≈: the same amount, converted by molar mass. Several values for one entry are separate records, joined by “and”; a condition that tells them apart may be missing. Equal values may be shown once.

What was measured:
[1] = molecular target: T1, H. pylori Shikimate Dehydrogenase (HpSDH) (Helicobacter pylori, UniProt P56119); assay: Enzymatic kinetics of effective compounds toward HpSDH; format: biochemical; conditions: for inhibition type toward NADP+ / inhibition type toward shikimic acid: HpSDH
T1 construct: made in house; host or cells: E. coli BL21
Procedure: (§1) The enzymatic activity of HpSDH was measured in the direction of reduction of NADP^+ to NADPH in the present of shikimic acid at 340 nm absorbance and conducted in 96-well plate ELISA reader. The final concentration of shikimic acid and NADP^+ were 2 mM, and the final protein concentration was 100 nM. Shikimic acid was added by injector needle equipped in ELISA reader to ensure the measurements were made at the same time spacing. NADPH would accumulate along with reaction, and the absorbance at 340 nm would be measured in every cycle of HpSDH reaction.
To study the inhibition mode of these compounds and inhibition type to shikimic acid and NADP^+, different concentrations of inhibitors and graded concentrations of substrates by activity assay was examined.

[2] = molecular target: T1, H. pylori Shikimate Dehydrogenase (HpSDH); assay: Inhibition activity assay toward HpSDH; format: biochemical; conditions: for IC50: IC50 toward HpSDH, wild type (26695) HpSDH recombinant protein; for inhibition activity toward HpSDH (in words): preliminary screening concentration 100 μM
Description: The recombinant HpSDH (aroE) was cloned in pET-28a plasmid and transformed into E. coli strain BL21 as expression host.
Relative HpSDH activity calculations were based on the initial velocity that absorbance at the 5 to 10% of the time when reaction absorbance reached the maximum level. The variable slope of this time interval represented the reaction rate of HpSDH at various concentration of compound and normalized with the negative control HpSDH (without inhibitor) which represented 100% activity.
To evaluate structure activity relationship (SAR), all the synthesized compounds in SDH inhibition activity on wild type HpSDH recombinant protein was evaluated. All the datas of effective compounds were expressed as IC50 value after treated with different compounds. In priminary screening, using 100 μM as priminary screening concentration to evaluate all synthesized compounds.
as §1

[3] = tested on: H. pylori; assay: Minimum bactericidal concentration assay (MBC assay) against H. pylori; format: cell-based, Helicobacter pylori; conditions: for MBC: Helicobacter pylori; for anti-bacterial activity toward H. pylori (in words): wild type (26695) and clinical isolated strains
Procedure: To evaluate the anti-H. pylori activity, the minimum bactericidal concentration (MBC) value of compounds was determined. The MBC value of standard antibiotics, clarithromycine (CLR) and metronidazole (MTZ) were served as the positive control.
Wild type (26695, as reference strain) was cultured on brucella broth agar plate containing 1% IsovialeX (Becton, Dickinson and Company, USA) and 10% sheep blood in microaerophilic environment (5% O2, 10% CO2, and 85% N2), 37° C. Clinical strains (v574, v633, v1086, v1254, v1267, v1354 and v2311) were cultured on brucella broth agar plate containing 1% IsovialeX and 20%-30% sheep blood in microaerophilic environment (5% O2, 10% CO2, and 85% N2), 37° C.
Wild type and selected clinical H. pylori strains was cultured for 24 to 36 hours and measured by Cell density meter, O.D. 680 at 0.87-0.9. H. pylori and selected compounds with serial concentration were mixed in Brucella-broth (BD) with 10% of FBS in 24-well plate, and total volume of each well was 300 μl, cultured under 37° C. with 180 rpm shaking. After incubated for 24 hours, 3 μl of each well was seeding on blood agar plate for another 48 hours culture. […] The final concentration of DMSO in the assay was less than 5% to avoid any effect in the growth of H. pylori at this experiment.

[4] = tested on: H. pylori; assay: Synergistic effect of compound 25a in MBC test against H. pylori; format: cell-based, Helicobacter pylori; conditions: for MBC: Helicobacter pylori, 24 h, read-out: MBC, single treatment

T1 sequence (P56119 whole entry): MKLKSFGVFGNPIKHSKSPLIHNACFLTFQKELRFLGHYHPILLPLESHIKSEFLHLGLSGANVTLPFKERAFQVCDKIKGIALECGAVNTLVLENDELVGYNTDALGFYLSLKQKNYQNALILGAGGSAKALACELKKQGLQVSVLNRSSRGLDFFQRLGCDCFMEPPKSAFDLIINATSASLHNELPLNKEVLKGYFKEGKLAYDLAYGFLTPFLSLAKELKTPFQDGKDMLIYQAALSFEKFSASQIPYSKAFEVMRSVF

SMILES	Ki [1]	inhibition type toward NADP+ [1]	inhibition type toward shikimic acid [1]	IC50 [2]	inhibition activity toward HpSDH (in words) [2]	MBC ([3]; W.T 26695)	MBC ([3]; clinical isolated strain v574)	MBC ([3]; clinical isolated strain v633)	MBC ([3]; clinical isolated strain v1086)	MBC ([3]; clinical isolated strain v1254)	MBC ([3]; clinical isolated strain v1267)	MBC ([3]; clinical isolated strain v1354)	MBC ([3]; clinical isolated strain v2311)	MBC value against H. pylori ([3]; W.T 26695)	MBC value against H. pylori ([3]; clinical isolated strain v633)	also measured
O=C1NC(=O)C(=C/C=C/c2ccc(NC(=O)c3ccccc3)cc2)C(=O)N1 [compound 17, (E)-N-(4-(3-(2,4,6-trioxotetrahydropyrimidin-5(2H)-ylidene)prop-1-en-1-yl)phenyl)benzamide]	6.93 µM	competitive inhibition	non-competitive or uncompetitive	16.1 µM and 11 to 22 µM	more effective inhibitors	16 µg/mL (≈ 44.3 µM)	16 µg/mL (≈ 44.3 µM)	16 µg/mL (≈ 44.3 µM)	16 µg/mL (≈ 44.3 µM)	16 µg/mL (≈ 44.3 µM)	16 µg/mL (≈ 44.3 µM)	8 µg/mL (≈ 22.1 µM)	16 µg/mL (≈ 44.3 µM)	–	–	–
C=CCN1C(=O)C(=C/C=C/c2ccccc2)C(=O)N(CC=C)C1=O [25a, (E)-1,3-diallyl-5-(3-phenylallylidene)pyrimidine-2,4,6(1H,3H,5H)-trione]	2.01 µM	competitive inhibition	non-competitive or uncompetitive	11.4 µM and 11 to 22 µM	more effective inhibitors	8 µg/mL (≈ 24.8 µM)	8 µg/mL (≈ 24.8 µM)	16 µg/mL (≈ 49.6 µM)	8 µg/mL (≈ 24.8 µM)	8 µg/mL (≈ 24.8 µM)	8 µg/mL (≈ 24.8 µM)	8 µg/mL (≈ 24.8 µM)	8 µg/mL (≈ 24.8 µM)	8.0 µg/mL (≈ 24.8 µM)	–	MBC [4]: 6 µg/mL; MBC, single treatment ([4]; v574 MTR-resistant strain): 6.0 µg/mL; MBC, single treatment ([4]; v1086 CLR-resistant strain): 6.0 µg/mL; anti-bacterial activity toward H. pylori (in words) [3]: three most potent inhibitors
COc1cc(/C=C/C=C2C(=O)NC(=O)NC2=O)cc(OC)c1 [7i]	3.81 µM	competitive inhibition	non-competitive or uncompetitive	20.3 µM and 11 to 22 µM	more effective inhibitors	8 µg/mL (≈ 26.5 µM)	8 µg/mL (≈ 26.5 µM)	4 µg/mL (≈ 13.2 µM)	8 µg/mL (≈ 26.5 µM)	32 µg/mL (≈ 106 µM)	8 µg/mL (≈ 26.5 µM)	4 µg/mL (≈ 13.2 µM)	16 µg/mL (≈ 52.9 µM)	8.0 µg/mL (≈ 26.5 µM)	4.0 µg/mL (≈ 13.2 µM)	MBC value against H. pylori ([3]; clinical isolated strain v1354): 4.0 µg/mL (≈ 13.2 µM)
COc1ccccc1/C=C/C=C1C(=O)NC(=O)NC1=O [7c]	–	–	–	33.7 µM	more effective inhibitors	–	–	–	–	–	–	–	–	–	–	MBC ([3]; 24 h, W.T 26695): 16 µg/mL (≈ 58.8 µM); MBC ([3]; 24 h, clinical isolated strain v574): 16 µg/mL (≈ 58.8 µM); MBC ([3]; 24 h, clinical isolated strain v633): 16 µg/mL (≈ 58.8 µM); MBC ([3]; 24 h, clinical isolated strain v1086): 8 µg/mL (≈ 29.4 µM); MBC ([3]; 24 h, clinical isolated strain v1254): 16 µg/mL (≈ 58.8 µM); MBC ([3]; 24 h, clinical isolated strain v1267): 16 µg/mL (≈ 58.8 µM); MBC ([3]; 24 h, clinical isolated strain v1354): 16 µg/mL (≈ 58.8 µM); MBC ([3]; 24 h, clinical isolated strain v2311): 16 µg/mL (≈ 58.8 µM)
O=C1NC(=O)C(=C/C=C/c2ccccc2)C(=O)N1 [7a]	–	–	–	32.7 µM	more effective inhibitors	–	–	–	–	–	–	–	–	–	–	–
Cc1ncc([N+](=O)[O-])n1CCO [MTR, metronidazole]	–	–	–	–	–	–	–	–	–	–	–	–	–	–	–	MBC ([4]; 26695 wild type): < 1 µg/mL; MBC ([4]; v574 MTR-resistant strain): 32 µg/mL; MBC ([4]; v1086 CLR-resistant strain): < 1 µg/mL; growth of v574 strain (in words) ([4]; MTR 16 mg/L alone or with compound 25a 2 mg/L): cannot suppressed the growth; dosage needed to inhibit strain v574 relative to compound 25a ([4]; v574 metronidazole resistant strain): 5 times
Cc1cc(C)cc(N2C(=O)NC(=O)/C(=C\C=C\c3ccccc3)C2=O)c1 [CB6010554]	–	–	–	–	–	10 µg/mL (≈ 28.9 µM)	–	–	–	–	–	–	–	10.0 µg/mL (≈ 28.9 µM)	–	–
COc1cccc(OC)c1/C=C/C=C1C(=O)NC(=O)NC1=O [7h]	–	–	–	–	more effective inhibitors	8 µg/mL (≈ 26.5 µM)	8 µg/mL (≈ 26.5 µM)	4 µg/mL (≈ 13.2 µM)	16 µg/mL (≈ 52.9 µM)	32 µg/mL (≈ 106 µM)	8 µg/mL (≈ 26.5 µM)	4 µg/mL (≈ 13.2 µM)	16 µg/mL (≈ 52.9 µM)	8.0 µg/mL (≈ 26.5 µM)	4.0 µg/mL (≈ 13.2 µM)	MBC value against H. pylori ([3]; clinical isolated strain v1354): 4.0 µg/mL (≈ 13.2 µM)
CSc1ccc(/C=C/C=C2C(=O)NC(=O)NC2=O)cc1 [7e]	2.67 µM	competitive inhibition	non-competitive or uncompetitive	22 µM and 11 to 22 µM	more effective inhibitors	8 µg/mL (≈ 27.7 µM)	8 µg/mL (≈ 27.7 µM)	8 µg/mL (≈ 27.7 µM)	8 µg/mL (≈ 27.7 µM)	8 µg/mL (≈ 27.7 µM)	8 µg/mL (≈ 27.7 µM)	8 µg/mL (≈ 27.7 µM)	8 µg/mL (≈ 27.7 µM)	8.0 µg/mL (≈ 27.7 µM)	–	anti-bacterial activity toward H. pylori (in words) [3]: three most potent inhibitors
COc1ccc(/C=C/C=C2C(=O)NC(=O)NC2=O)cc1 [7d]	–	–	–	35.1 µM	more effective inhibitors	8 µg/mL (≈ 29.4 µM)	8 µg/mL (≈ 29.4 µM)	4 µg/mL (≈ 14.7 µM)	8 µg/mL (≈ 29.4 µM)	8 µg/mL (≈ 29.4 µM)	8 µg/mL (≈ 29.4 µM)	8 µg/mL (≈ 29.4 µM)	16 µg/mL (≈ 58.8 µM)	8.0 µg/mL (≈ 29.4 µM)	4.0 µg/mL (≈ 14.7 µM)	anti-bacterial activity toward H. pylori (in words) [3]: three most potent inhibitors
O=C1NC(=O)C(=C/C=C/c2ccc([N+](=O)[O-])cc2)C(=O)N1 [7b]	–	–	–	–	–	8 µg/mL (≈ 27.9 µM)	8 µg/mL (≈ 27.9 µM)	4 µg/mL (≈ 13.9 µM)	8 µg/mL (≈ 27.9 µM)	8 µg/mL (≈ 27.9 µM)	8 µg/mL (≈ 27.9 µM)	8 µg/mL (≈ 27.9 µM)	16 µg/mL (≈ 55.7 µM)	8.0 µg/mL (≈ 27.9 µM)	4.0 µg/mL (≈ 13.9 µM)	–
CC[C@H]1OC(=O)[C@H](C)[C@@H](O[C@H]2C[C@@](C)(OC)[C@@H](O)[C@H](C)O2)[C@H](C)[C@@H](O[C@@H]2O[C@H](C)C[C@H](N(C)C)[C@H]2O)[C@](C)(OC)C[C@@H](C)C(=O)[C@H](C)[C@@H](O)[C@]1(C)O [CLR, clarithromycin]	–	–	–	–	–	–	–	–	–	–	–	–	–	–	–	growth of resistant strain v1086 (in words) ([4]; CLR 4 mg/L alone or with compound 25a 2 mg/L): cannot completely inhibit the growth; MBC ([4]; 26695 wild type): < 1 µg/mL; MBC ([4]; v574 MTR-resistant strain): < 1 µg/mL; MBC ([4]; v1086 CLR-resistant strain): 8 µg/mL
C=CCN1C(=O)NC(=O)/C(=C/C=C/c2ccccc2)C1=O [CB6942859]	–	–	–	–	–	5 µg/mL (≈ 17.7 µM)	–	–	–	–	–	–	–	5.0 µg/mL (≈ 17.7 µM)	–	–
